Like-named read-outs stand apart in the source and are kept apart here.
Tests used:
[1] = target: full-length human RORγt (Homo sapiens (Human), UniProt P51449); test: RORγt (full-length human) reporter assay, Conditions B or C; format: cell-based; conditions: for RORγt (FL) Reporter Assay B or C, % inhibition (value marked *): marked *: footnote not given; for inhibition at 3 µM: at 3 μM compound concentration; for inhibition at 6 µM: read-out: RORγt (FL) Reporter Assay B or C, % inhibition @ 6 μM, Conditions B or C
Sequence of full-length human RORγt (P51449 other isoform, or with tags, fused parts or gaps): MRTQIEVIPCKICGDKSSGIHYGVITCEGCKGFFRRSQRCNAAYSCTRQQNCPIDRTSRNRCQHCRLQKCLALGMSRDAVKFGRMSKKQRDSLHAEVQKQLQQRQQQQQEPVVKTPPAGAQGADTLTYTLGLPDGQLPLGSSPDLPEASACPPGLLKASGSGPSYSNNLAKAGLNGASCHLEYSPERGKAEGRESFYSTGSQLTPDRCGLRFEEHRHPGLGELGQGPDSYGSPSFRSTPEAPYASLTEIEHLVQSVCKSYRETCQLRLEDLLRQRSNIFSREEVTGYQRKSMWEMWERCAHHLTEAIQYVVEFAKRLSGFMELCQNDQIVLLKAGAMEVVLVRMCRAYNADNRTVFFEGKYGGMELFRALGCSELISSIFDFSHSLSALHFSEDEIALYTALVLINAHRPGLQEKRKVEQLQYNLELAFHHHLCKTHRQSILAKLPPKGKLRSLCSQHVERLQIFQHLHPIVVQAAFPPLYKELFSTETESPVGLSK
In short: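 Readout is dual luciferase: firefly (GAL4-driven) normalized to DMSO-only and saturating-reference controls, then to CMV-Renilla. Full-length human RORγt fused to GAL4-DBD was transiently expressed in HEK293T; compound exposure ran overnight (16-20 h) starting 4-6 h after transfection, final FBS 1.3%, DMSO 0.1%.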

[2] = target: human RORγt ligand binding domain (RORγt LBD) (Homo sapiens (Human), UniProt P51449); test: RORγt ThermoFluor® assay (thermal shift binding); conditions: read-out: ThermoFluor® Assay, Kd
Sequence of human RORγt ligand binding domain (RORγt LBD) (P51449 other isoform, or with tags, fused parts or gaps): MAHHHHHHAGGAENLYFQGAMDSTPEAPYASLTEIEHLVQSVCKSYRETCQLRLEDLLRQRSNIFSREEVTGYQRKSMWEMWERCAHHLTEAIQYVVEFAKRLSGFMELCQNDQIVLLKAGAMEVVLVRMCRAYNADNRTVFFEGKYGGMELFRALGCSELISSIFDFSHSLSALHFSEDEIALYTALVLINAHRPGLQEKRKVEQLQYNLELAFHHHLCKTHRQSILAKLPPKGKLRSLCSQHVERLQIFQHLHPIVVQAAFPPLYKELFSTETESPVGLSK
In short: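 Binding was inferred from thermal stabilisation (ΔTm) of the E. coli-expressed RORγt LBD (0.065 mg/mL), monitored by 1,8-ANS (60 μM) emission at 500 nm during a 1 °C/min ramp. Buffer was Hepes 100 mM pH 7.0 with NaCl, GSH and Tween-20.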

[3] = Conditions B or C, read-out: RORγt (FL) Reporter Assay B or C, IC50
[4] = read-out: RORγt (FL) Reporter Assay B or C, % inhibition
[5] = read-out: RORγt (FL) Reporter Assay B or C, IC50

Row | RORγt (FL) Reporter Assay B or C, % inhibition (value marked *) ([1]; Conditions B or C) | IC50 [1, 3] | Kd [2] | inhibition at 3 µM [1, 4] | IC50 [1, 5] | inhibition at 6 µM [1] | SMILES | IC50 ([1]; RORγt (FL) Reporter Assay B or C, IC50) | inhibition at 1 µM ([1]; at 1 μM compound concentration, read-out: RORγt (FL) Reporter Assay B or C, % inhibition)
1 | 104* % | 11 nM | 3 nM | – | – | – | CC[C@@H](Nc1cc(C(F)(F)F)c(-c2sc(C(=O)NCC(C)(C)O)nc2C(=O)N2CCC[C@@H]2C)cn1)C1CC1 (relative stereo) [Example 129, 5-(6-(((R*)-1-Cyclopropylpropyl)amino)-4-(trifluoromethyl)pyridin-3-yl)-N-(2-hydroxy-2-methylpropyl)-4-((S)-2-methylpyrrolidine-1-carbonyl)thiazole-2-carboxamide] | – | –
2 | 112* % | 14 nM | 0.41 nM | – | – | – | C[C@H]1CCCN1C(=O)c1nc(C(=O)NCC(C)(C)O)sc1-c1cnc(NC(C)(C)C(F)(F)F)cc1C(F)(F)F [Example 132, (S)—N-(2-Hydroxy-2-methylpropyl)-4-(2-methylpyrrolidine-1-carbonyl)-5-(6-((1,1,1-trifluoro-2-methylpropan-2-yl)amino)-4-(trifluoromethyl)pyridin-3-yl)thiazole-2-carboxamide] | – | –
3 | – | – | 10 nM | 106% | 82 nM | – | C[C@H]1CCCN1C(=O)c1nc(C(=O)N2C[C@@H]3C[C@H]2CO3)sc1-c1cnc(NC(C)(C)C)cc1C(F)(F)F [Example 360, [5-[6-(tert-Butylamino)-4-(trifluoromethyl)-3-pyridyl]-2-[(1S,4S)-2-oxa-5-azabicyclo[2.2.1]heptane-5-carbonyl]thiazol-4-yl]-[(2S)-2-methylpyrrolidin-1-yl]methanone] | – | –
4 | – | – | 2 nM | 114% | 34 nM | – | CC[C@H](Nc1cc(C(F)F)c(-c2sc(C(=O)NC3CCOCC3)nc2C(=O)N2CCC[C@@H]2C)cn1)C(F)(F)F [Example 394, 5-[4-(Difluoromethyl)-6-[[(1S)-1-(trifluoromethyl)propyl]amino]-3-pyridyl]-4-[(2S)-2-methylpyrrolidine-1-carbonyl]-N-tetrahydropyran-4-yl-thiazole-2-carboxamide] | – | –
5 | 114* % | 39 nM | 2.3 nM | – | – | – | C[C@H]1CC(F)(F)CN1C(=O)c1nc(C(=O)NCC(C)(C)O)sc1-c1cnc(NC(C)(C)C)cc1C(F)F [Example 143, (S)-5-(6-(tert-Butylamino)-4-(difluoromethyl)pyridin-3-yl)-4-(4,4-difluoro-2-methylpyrrolidine-1-carbonyl)-N-(2-hydroxy-2-methylpropyl)thiazole-2-carboxamide] | – | –
6 | – | – | 1.1 nM | 97% | 18 nM | – | C[C@H](Nc1cc(C(F)F)c(-c2sc(C(=O)N[C@@H]3CC[C@@H](O)C3)nc2C(=O)N2CC(F)(F)C[C@@H]2C)cn1)C(F)(F)F [Example 410, 4-[(2S)-4,4-Difluoro-2-methyl-pyrrolidine-1-carbonyl]-5-[4-(difluoromethyl)-6-[[(1S)-2,2,2-trifluoro-1-methyl-ethyl]amino]-3-pyridyl]-N-[(1R,3R)-3-hydroxycyclopentyl]thiazole-2-carboxamide] | – | –
7 | – | – | 0.23 nM | 98% | 63 nM | – | CC[C@H](Nc1cc(C(F)F)c(-c2sc(C(=O)N[C@@H]3CC[C@@H](O)C3)nc2C(=O)N2CC(F)(F)C[C@@H]2C)cn1)C(F)(F)F [Example 424, 4-[(2S)-4,4-Difluoro-2-methyl-pyrrolidine-1-carbonyl]-5-[4-(difluoromethyl)-6-[[(1S)-1-(trifluoromethyl)propyl]amino]-3-pyridyl]-N-[(1R,3R)-3-hydroxycyclopentyl]thiazole-2-carboxamide] | – | –
8 | 106* % | 200 nM | 1.8 nM | – | – | – | C[C@H]1CC(F)(F)CN1C(=O)c1nc(C(=O)NCC(C)(C)O)sc1-c1cnc(NC2(C)CCC2)cc1C(F)F [Example 168] | – | –
9 | 111* % | 23 nM | 11 nM | – | – | – | C[C@@H](Nc1cc(C(F)(F)F)c(-c2sc(C(=O)NCC(C)(C)O)nc2C(=O)N2CCC[C@@H]2C)cn1)C1CC1 [Example 48, 5-(6-(((R)-1-Cyclopropylethyl)amino)-4-(trifluoromethyl)pyridin-3-yl)-N-(2-hydroxy-2-methylpropyl)-4-((S)-2-methylpyrrolidine-1-carbonyl)thiazole-2-carboxamide] | – | –
10 | – | – | 1 nM | 113% | 17 nM | – | C[C@H](CO)NC(=O)c1nc(C(=O)N2CC(F)(F)C[C@@H]2C)c(-c2cnc(NC(C)(C)C)cc2C(F)F)s1 [Example 428, 5-[6-(tert-Butylamino)-4-(difluoromethyl)-3-pyridyl]-4-[(2S)-4,4-difluoro-2-methyl-pyrrolidine-1-carbonyl]-N-[(1R)-2-hydroxy-1-methyl-ethyl]thiazole-2-carboxamide] | – | –
11 | 106* % | 8.3 nM | 6.2 nM | – | – | – | C[C@H]1CCCN1C(=O)c1nc(C(=O)NC[C@H](O)C(C)(C)O)sc1-c1cnc(NC(C)(C)C)cc1C(F)(F)F (single isomer, unassigned) [Example 244, 5-(6-(tert-Butylamino)-4-(trifluoromethyl)pyridin-3-yl)-N—((S*)-2,3-dihydroxy-3-methylbutyl)-4-((S)-2-methylpyrrolidine-1-carbonyl)thiazole-2-carboxamide] | – | –
12 | – | 20 nM | 2.8 nM | – | – | 104% | C[C@H](Nc1cc(C(F)(F)F)c(-c2sc(C(=O)NCC(C)(C)O)nc2C(=O)N2CCC(F)CC2)cn1)C1CC1 [Example 30, (S)-5-(6-((1-Cyclopropylethyl)amino)-4-(trifluoromethyl)pyridin-3-yl)-4-(4-fluoropiperidine-1-carbonyl)-N-(2-hydroxy-2-methylpropyl)thiazole-2-carboxamide] | – | –
13 | – | 13 nM | 0.12 nM | – | – | 105% | C[C@H](Nc1cc(C(F)(F)F)c(-c2sc(C(=O)NCC(C)(C)O)nc2C(=O)N2CCCC[C@@H]2C)cn1)C1CC1 [Example 39, 5-(6-(((S)-1-Cyclopropylethyl)amino)-4-(trifluoromethyl)pyridin-3-yl)-N-(2-hydroxy-2-methylpropyl)-4-((S)-2-methylpiperidine-1-carbonyl)thiazole-2-carboxamide] | – | –

Row | SMILES | RORγt (FL) Reporter Assay B or C, % inhibition (value marked *) ([1]; Conditions B or C) | IC50 [1, 3] | Kd [2] | inhibition at 3 µM [1, 4] | IC50 [1, 5] | inhibition at 6 µM [1] | IC50 ([1]; RORγt (FL) Reporter Assay B or C, IC50) | inhibition at 1 µM ([1]; at 1 μM compound concentration, read-out: RORγt (FL) Reporter Assay B or C, % inhibition)
14 | CC1(Nc2cc(C(F)F)c(-c3sc(C(=O)NC4CCS(=O)(=O)CC4)nc3C(=O)N3C4CCC3CC4)cn2)CCC1 [Example 331, 4-((1s,4s)-7-Azabicyclo[2.2.1]heptane-7-carbonyl)-5-(4-(difluoromethyl)-6-((1-methylcyclobutyl)amino)pyridin-3-yl)-N-(1,1-dioxidotetrahydro-2H-thiopyran-4-yl)thiazole-2-carboxamide] | – | – | 1.5 nM | 81% | 23 nM | – | – | –
15 | CC[C@H](Nc1cc(C(F)F)c(-c2sc(C(=O)N[C@H]3CC[C@H](O)C3)nc2C(=O)N2C3CCC2CC3)cn1)C(F)(F)F [Example 151] | 104* % | 15 nM | 0.87 nM | – | – | – | – | –
16 | O=C(N[C@@H]1COC[C@H]1O)c1nc(C(=O)N2C3CCC2CC3)c(-c2cnc(N[C@@H](C3CC3)C(F)(F)F)cc2C(F)F)s1 [Example 442, 4-((1s,4s)-7-Azabicyclo[2.2.1]heptane-7-carbonyl)-5-[6-[[(1S)-1-cyclopropyl-2,2,2-trifluoro-ethyl]amino]-4-(difluoromethyl)-3-pyridyl]-N-[(3R,4S)-4-hydroxytetrahydrofuran-3-yl]thiazole-2-carboxamide] | – | – | 1.6 nM | – | – | – | 320 nM | 96%

Reference: patent US10975068B2, “6-aminopyridin-3-yl thiazoles as modulators of RORγT” (Janssen Pharmaceutica NV, priority 2016, dated 2021)
